The target in data set [1] is T1, C. albicans RNA polymerase II (Candida albicans, UniProt A0A1D8PUA6+Q5A8Y5).
T1 construct: RNA elongation assay on calf thymus DNA
As to the kind of experiment: biochemical. The conditions noted are these: for pIC50: Table 1, read-out: IC50 Candida pol II. The protocol:
(§1) The following procedure is used for cell-free high-throughput screening. A Tomtec Quadra 96-well pipetting station is used to add the reaction components to polypropylene 96-well dishes. 5 μl aliquots of test compounds dissolved in DMSO (or DMSO alone as a control) are added to wells. This is followed by 20 μl of the RNA polymerase II mixture, which consists of: 10 mM DTT, 200 mM KCl, 10 mM Mn^+2, 1.5 μM bovine serum albumin, and 0.25 μg reconstituted RNA polymerase. After allowing the test compound to interact with the RNA polymerase, 25 μl of the DNA/NTP mixture is added, containing: 1 μg calf thymus DNA, 4 μM [α-^32 P]-UTP, and 400 μM each CTP, ATP, and GTP.
(§2) After incubation for 60 min at 30 C, the reaction is stopped by addition of 50 μl 15% trichloroacetic acid (TCA). The TCA-precipitated RNA is adsorbed onto double-thick glass fiber filtermats using a Tomtec cell harvester. The wells of the microtiter plate and the filter are washed twice with 5% TCA and bound radioactivity is determined using a Wallac microbeta 1450 scintillation counter.
(§3) Inhibitory activity due to the test compound is calculated according to the formula: [formula] where cpmpositive control represents the average of the cpm in wells that received DMSO alone, and cpmsample represents the cpm in the well that received test compound. Compounds that cause at least 50% inhibition are scored as positive "hits" in this assay.
(§4) DNA-directed RNA polymerase II from Candida albicans was purified in sufficient quantity to support high throughput screening of large synthetic chemical and natural product libraries. A biochemical mechanism-based screen for detecting inhibitors of Pol II was developed and implemented. The screen is outlined in FIGS. 4A and 4B.

The test system of data set [2] is C. albicans RNA polymerase II. Kind of data set: biochemical. On the procedure:
as §1, §2, §3, §4

Data set [3] has as its target T2, human Pol II (Homo sapiens, UniProt P24928+P30876).
T2 construct: Pol II was isolated from Aspergillus nidulans, Saccharomyces cerevisiae, and human cells; endogenous in cells; enzyme isolated from them
Kind of data set: RNA polymerase II counterscreen, human pol II. It counts as biochemical. The protocol: Pol II was isolated from Aspergillus nidulans, Saccharomyces cerevisiae, and human cells (FIG. 5) and used in secondary screens for fungal spectrum and specificity. Pol I and Pol III were isolated from Candida albicans and used as an additional mechanism to study specificity. Confirmed hits form the primary assay and were evaluated against this panel of polymerases. Agents with activity against Pol II from multiple fungal enzymes but not against the human counterpart were evaluated in vitro against fungal pathogens.
(The purpose of a counterscreen is to sort out artefacts and off-target activity.)

Data set [4] concerns fungal pathogens. Kind of data set: In vitro antifungal activity (MIC). It counts as cell-based.
In data set [5] the test system is systemic Candida infection. Kind of data set: Murine model for systemic candidiasis. It counts as in vivo, mouse. The protocol: (§5) In addition, Compound 1 was efficacious in a murine model for systemic candidiasis (FIG. 10). It prolonged mean and median survival times of treated mice in the dosage range of 5 mg/kg/d to 100 mg/kg/d on aq.d., d2-11 schedule. […] The efficacy of Compound 1 was confirmed in a separate experiment using amphotericin as a control (FIG. 11). Compound 1 was also efficacious when administered orally to mice with an established systemic Candida infection (FIG. 12). […] Compound 1 is also effective against systemic candidiasis caused by a strain of C. albicans resistant to fluconazole (FIG. 13). Additional animal testing will include acute toxicity determination, route and schedule dependency in standard efficacy models, efficacy testing in immunosuppressed Candida infected mice, efficacy in an Aspergillus infection model, and pharmacokinetics following IV and oral dosing.
(§6) Compound 6 was evaluated for antifungal efficacy in a systemic candidiasis model in immunocompetent mice (FIG. 18). The compound was administered IP on a q.d., d2-11 schedule. […] 90% long term survival was seen formice treated with Compound 6 at 200/mg/kg. 30% of mice survived when treated with Compound 6 at 100 mg/kg/d. Compound 6 was also effective against systemic candidiasis when administered orally (FIG. 19) and it was effective in treating infections caused by fluconazole-resistant C. albicans.

Data set [6] relates to C. albicans resistant to fluconazole. As to the kind of experiment: Systemic candidiasis caused by fluconazole-resistant C. albicans. The conditions noted are these: mouse, in vivo. On the procedure: as §5, §6
Data set [7] can be described thus: Compound-related toxicity in treated mice. Type of data set: in vivo, mouse. On the procedure:
as §5, §6

For data set [8], the system named is C. albicans. Kind of data set: MIC alone and with sub-MIC amphotericin B, C. albicans. Type of data set: cell-based, Candida albicans. The source says: (§7) This synergy was not seen in an amphotericin-resistant strain. Subsequent experiments in a 2-way titration format confirmed the synergistic activity of the combination (FIG. 18). The synergy noted between these two agents was unique among the tested antifungal compounds, and was not noted for other promising compounds identified in the high throughput screen.

Data set [9] deals with wild type C. tropicalis. Kind of data set: MIC alone and with sub-MIC amphotericin B, C. tropicalis. It counts as cell-based, Candida tropicalis.
Excerpt: as §7

Data set [10] deals with amphotericin-resistant strain. Kind of data set: Synergy with amphotericin B in amphotericin-resistant strain. Type of data set: cell-based.
Excerpt: as §7

The test system of data set [11] is Fusarium culmorum. Kind of data set: MIC against plant pathogen. Type of data set: cell-based.
Data set [12] has as its system Trichophyton mentagrophytes. As to the kind of experiment: Activity against human dermatophytic fungi. Type of data set: cell-based.
Data set [13] concerns monkey kidney cells. Kind of data set: Toxicity against monkey kidney cells. It counts as cell-based.
Data set [14] has as its system Candida strains resistance to ketoconazole or to amphotericin B. Kind of data set: Antifungal activity against resistant Candida strains. Type of data set: cell-based.
In data set [15] the test system is C. albicans. Kind of data set: Time course of fungicidal activity, C. albicans. Type of data set: cell-based, Candida albicans. The source says:
(§8) Compound 1 is rapidly fungicidal.

Data set [16] concerns S. cerevisiae. As to the kind of experiment: Time course of fungicidal activity, S. cerevisiae. It counts as cell-based, Saccharomyces cerevisiae.
Excerpt: as §8

Data set [17] deals with C. albicans. As to the kind of experiment: Frequency of resistance study, C. albicans. Particulars: selective concentrations 1× to 10× the MIC. Type of data set: cell-based, Candida albicans. On the procedure: A frequency of resistance study is conducted for Compound 1 using C. albicans and S. cerevisiae, with amphotericin B as the comparator. Selective concentrations of each compound between 1× and 10× the MIC are used for each compound.

Data set [18] is described as follows: Safety assessment on target panel. The protocol: (§9) A safety assessment of Compound 1 was conducted. The compound was negative for effects in a number of CNS, cardiovascular, intermediary metabolism, allergy/inflammation and gastrointestinal targets. The compound was nontoxic when administered orally at 300 mg/kg.
A short description of data set [19]: Safety assessment, oral toxicity. Type of data set: in vivo. The conditions noted are these: orally at 300 mg/kg. The protocol:
as §9

Where [20] appears, read: listed as stilbene isostere of Compound 1.
[21] abbreviates: Table 1, antifungal activity, read-out: MIC.

The structures appear in SMILES notation. pIC50: −log10 of the molar value. In brackets after ≈: the same amount, converted by molar mass. Entries after “also recorded” stand apart in the source; their conditions may differ. Like-named read-outs stand apart in the source and are kept apart here.

T1 sequence (A0A1D8PUA6 1-1728): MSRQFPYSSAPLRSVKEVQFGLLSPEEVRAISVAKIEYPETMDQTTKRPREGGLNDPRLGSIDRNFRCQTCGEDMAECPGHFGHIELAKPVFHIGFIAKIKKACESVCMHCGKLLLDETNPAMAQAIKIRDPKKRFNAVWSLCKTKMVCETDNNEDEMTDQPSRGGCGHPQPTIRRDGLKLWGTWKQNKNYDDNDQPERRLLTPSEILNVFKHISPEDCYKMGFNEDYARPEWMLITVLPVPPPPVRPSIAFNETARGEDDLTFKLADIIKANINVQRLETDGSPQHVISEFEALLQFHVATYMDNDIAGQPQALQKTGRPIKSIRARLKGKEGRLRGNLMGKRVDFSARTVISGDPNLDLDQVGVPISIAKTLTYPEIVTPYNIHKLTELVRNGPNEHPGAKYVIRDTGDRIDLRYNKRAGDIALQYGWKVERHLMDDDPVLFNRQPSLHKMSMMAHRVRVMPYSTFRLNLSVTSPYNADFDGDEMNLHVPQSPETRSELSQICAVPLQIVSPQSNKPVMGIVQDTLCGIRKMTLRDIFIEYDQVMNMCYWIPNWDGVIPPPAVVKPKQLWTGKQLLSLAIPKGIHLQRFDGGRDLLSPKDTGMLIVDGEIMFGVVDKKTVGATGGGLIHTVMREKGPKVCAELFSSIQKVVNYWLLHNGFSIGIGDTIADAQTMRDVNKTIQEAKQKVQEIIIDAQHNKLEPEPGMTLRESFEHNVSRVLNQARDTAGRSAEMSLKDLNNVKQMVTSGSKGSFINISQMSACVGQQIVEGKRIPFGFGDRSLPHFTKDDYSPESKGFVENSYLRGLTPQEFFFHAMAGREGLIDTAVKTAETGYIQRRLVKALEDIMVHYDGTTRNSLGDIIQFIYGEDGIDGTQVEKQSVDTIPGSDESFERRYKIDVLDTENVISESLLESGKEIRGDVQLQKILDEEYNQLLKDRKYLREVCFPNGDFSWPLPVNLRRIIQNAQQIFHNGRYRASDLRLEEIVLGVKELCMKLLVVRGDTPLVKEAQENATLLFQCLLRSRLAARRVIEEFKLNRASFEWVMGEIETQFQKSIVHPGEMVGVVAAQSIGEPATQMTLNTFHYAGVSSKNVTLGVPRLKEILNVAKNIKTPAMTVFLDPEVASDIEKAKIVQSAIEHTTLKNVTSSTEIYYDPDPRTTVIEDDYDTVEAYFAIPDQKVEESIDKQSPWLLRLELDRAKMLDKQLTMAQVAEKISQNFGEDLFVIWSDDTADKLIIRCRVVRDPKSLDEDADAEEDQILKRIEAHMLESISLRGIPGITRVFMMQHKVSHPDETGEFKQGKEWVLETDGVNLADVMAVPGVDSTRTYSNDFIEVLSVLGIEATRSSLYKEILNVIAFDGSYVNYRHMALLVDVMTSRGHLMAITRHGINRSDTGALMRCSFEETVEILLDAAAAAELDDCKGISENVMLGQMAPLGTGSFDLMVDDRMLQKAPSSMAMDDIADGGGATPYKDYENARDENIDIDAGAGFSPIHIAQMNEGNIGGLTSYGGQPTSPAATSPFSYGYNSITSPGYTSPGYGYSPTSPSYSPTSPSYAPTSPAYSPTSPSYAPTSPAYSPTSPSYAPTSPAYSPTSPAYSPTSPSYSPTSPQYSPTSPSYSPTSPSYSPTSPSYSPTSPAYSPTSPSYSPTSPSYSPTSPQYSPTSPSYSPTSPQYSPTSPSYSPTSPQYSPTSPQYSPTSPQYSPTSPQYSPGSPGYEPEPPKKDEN
T1 sequence (Q5A8Y5 1-1234): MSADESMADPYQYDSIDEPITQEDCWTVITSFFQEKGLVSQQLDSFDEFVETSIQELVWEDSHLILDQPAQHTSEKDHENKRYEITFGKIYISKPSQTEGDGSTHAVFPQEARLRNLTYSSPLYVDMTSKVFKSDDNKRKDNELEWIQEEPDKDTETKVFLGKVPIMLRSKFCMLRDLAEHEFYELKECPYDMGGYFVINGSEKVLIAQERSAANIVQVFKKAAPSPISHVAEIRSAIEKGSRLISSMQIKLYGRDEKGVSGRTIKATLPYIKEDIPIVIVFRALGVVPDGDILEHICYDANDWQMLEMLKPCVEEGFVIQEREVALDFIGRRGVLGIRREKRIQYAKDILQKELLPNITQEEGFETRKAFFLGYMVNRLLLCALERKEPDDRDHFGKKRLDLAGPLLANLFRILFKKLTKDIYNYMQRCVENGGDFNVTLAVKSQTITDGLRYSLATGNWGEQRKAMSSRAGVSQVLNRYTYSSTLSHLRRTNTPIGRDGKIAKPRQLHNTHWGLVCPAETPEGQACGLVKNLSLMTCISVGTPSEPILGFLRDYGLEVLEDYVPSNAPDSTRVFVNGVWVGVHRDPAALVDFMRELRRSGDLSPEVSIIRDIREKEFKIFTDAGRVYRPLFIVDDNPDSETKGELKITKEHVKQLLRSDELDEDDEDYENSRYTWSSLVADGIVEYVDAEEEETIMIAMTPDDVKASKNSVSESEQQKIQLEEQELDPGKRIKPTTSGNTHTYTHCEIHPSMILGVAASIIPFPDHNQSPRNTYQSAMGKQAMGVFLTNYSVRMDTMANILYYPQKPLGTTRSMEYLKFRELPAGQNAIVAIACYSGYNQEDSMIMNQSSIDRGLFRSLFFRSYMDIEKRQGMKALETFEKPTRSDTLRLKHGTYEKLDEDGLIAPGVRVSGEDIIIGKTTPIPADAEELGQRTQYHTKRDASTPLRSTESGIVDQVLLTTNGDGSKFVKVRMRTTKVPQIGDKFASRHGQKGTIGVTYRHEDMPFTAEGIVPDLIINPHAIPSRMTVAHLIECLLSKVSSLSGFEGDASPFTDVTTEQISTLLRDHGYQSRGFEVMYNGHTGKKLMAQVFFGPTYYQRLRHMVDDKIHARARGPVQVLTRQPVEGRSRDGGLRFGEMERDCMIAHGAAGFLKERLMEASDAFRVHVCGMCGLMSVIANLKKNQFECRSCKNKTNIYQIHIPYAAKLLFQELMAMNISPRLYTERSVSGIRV

For the compound `Oc1ccc(C=Cc2cccc(C(F)(F)F)c2)cc1` [Compound 6, 4-[-2-[3-(trifluoromethyl)phenyl]ethenyl]phenol], the negative logarithm of the IC50 (pIC50) in data set [1] was 4.15; in data set [3], 3.64. Besides, the “selectivity for Candida/fungal Pol II relative to human Pol II” value in data set [2] is listed as “selective”; in [2] (setting [20]), “retained selective activity”. The figures for the “in vitro antifungal activity / spectrum” value in data set [4] and in data set [4] (setting [20]) were “broadly active against fungi” and “had antifungal activity”, respectively. Also, in data set [4] (setting [21]), the MIC was determined as 8.2 µg/mL (≈ 31 µM). The same compound returned a mice survived in [5] (IP q.d. d2-11, 100 mg/kg/d, immunocompetent mice) of 30%. In data set [5] (IP q.d. d2-11, 200/mg/kg, immunocompetent mice), this compound registered a long term survival of 90%. Moreover, the “efficacy against systemic candidiasis when administered orally” value in [5] (oral) is on record as “effective”. For the same compound, in data set [6], the “efficacy against systemic candidiasis caused by fluconazole-resistant C. albicans” value was “effective”. In addition, the compound-related toxicity entry in data set [7] (IP, q.d., d2-11, any of the treatment groups, immunocompetent mice) was “no evidence of compound-related toxicity”.

As for `CCCCN(CCO)c1ccc(N=Nc2c(Br)cc([N+](=O)[O-])cc2[N+](=O)[O-])c(C)c1` [Compound 2], the “fungal Pol II inhibition” value in data set [1] is listed as “potent inhibitor”. Moreover, the “fungicidal or fungistatic character” value in [4] is listed as “does not appear to be fungicidal; also recorded: fungistatic rather than fungicidal”. Also, the MIC was 1 to 2 µg/mL in data set [4] (in combination with amphotericin B, strain not named); 80 µg/mL in data set [8] (alone, ketoconazole resistant C. albicans); 80 µg/mL in data set [8] (alone, wild type C. albicans); 1 to 2 µg/mL in data set [8] (with sub-MIC amphotericin B (1/3 of the MIC), ketoconazole resistant C. albicans); 1 to 2 µg/mL in data set [8] (with sub-MIC amphotericin B (1/3 of the MIC), wild type C. albicans); 80 µg/mL in data set [9] (alone). Further, in [9] (with sub-MIC amphotericin B (1/3 of the MIC)), the MIC was 1 to 2 µg/mL. Moreover, the “potency against Candida albicans in vitro” value in data set [8] is listed as “relatively low potency”. Besides, the “synergy with amphotericin B” value in [8] was “act synergistically”; in [10], “not seen”.

In the case of `Oc1ccc(N=Nc2cccc(C(F)(F)F)c2)cc1` [Compound 1, 4-[-2-[3-(trifluoromethyl)phenyl]diazenyl]-phenol], the “fungal Pol II inhibition” value in data set [1] is “potent activity”. In addition, the results for the pIC50 in data set [1] and in data set [3] were 5.00 and 4.37, respectively. The compound also registered an inhibition at 20 µM in data set [1] (at 20 μM, screening of azo library) of 59%. The “in vitro antifungal activity / spectrum” value in data set [4] is listed as “broad spectrum in vitro activity”. In addition, the figures for the MIC in [4] (setting [21]) and in [11] were 16.6 µg/mL (≈ 62.4 µM) and 6.25 µg/mL (≈ 23.5 µM), respectively. The “activity against Trichophyton mentagrophytes” value in data set [12] is “active”. For the same compound, in data set [13], the “toxicity against monkey kidney cells” value was “essentially non-toxic”. Also, the “antifungal activity against resistant Candida strains” value in data set [14] is on record as “retains antifungal activity”. The “exposure time after which no CFUs are recoverable” value in [15] (C. albicans cells) and in [16] (S. cerevisiae cells) was 5 min in each case. Further, the “colony forming units after exposure” value in data set [15] (about 10^6 C. albicans cells, 25 μg/ml, 45 minutes) is reported as “no detectable colony forming units”; in data set [16] (about 10^6 S. cerevisiae cells, 25 μg/ml, 45 minutes) it was “no detectable colony forming units”. Moreover, the “mean and median survival times of treated mice” value in data set [5] (5 mg/kg/d to 100 mg/kg/d, q.d., d2-11) is reported as “prolonged”. In addition, in [5] (mice with an established systemic Candida infection, oral), the “efficacy when administered orally” value was “efficacious”. In [5] (systemic candidiasis, mice), the “recoverable colonies from the kidneys of treated animals” value is on record as “reduced”. Besides, the “efficacy against systemic candidiasis caused by fluconazole-resistant C. albicans” value in data set [6] was “effective”. Besides, the compound related toxicity result in data set [7] (IP or PO for 10 days at 100 mg/kg/d) is reported as “No signs of compound related toxicity”. Moreover, in [17], the frequency of resistance was < 1×10^-8. The “effects in safety assessment targets” value in data set [18] is reported as “negative”. For the same compound, the “toxicity when administered orally” value in [19] is on record as “nontoxic”.

As a reminder, the pIC50 is the negative decadic logarithm of the IC50, by convention in mol/L. The term MIC denotes the lowest concentration found to suppress growth. The term inhibition denotes the percentage by which the read-out fell short of the control.

The values are drawn from patent publication US6165998A, “Antifungal agents” (Scriptgen Pharmaceuticals, Inc., priority 1998, dated 2000).
